Measurements taken from patent US12195427B2, “MASP-2 inhibitors and methods of use” (priority 2018, dated 2025).
Blank lines part the entries; values can stand above or below the molecule they belong to.

Target: MASP-2 CCP2-SP (Homo sapiens (Human), UniProt O00187)
Test: MASP-2 co-crystallization, X-ray crystallography and structure analysis (H-bonds, van der Waals contacts);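 for Ligand-pharmacophore element distance, pharmacophore element C2: distance from averaged pharmacophore element to bound ligand; missing value means element absent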;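 for Ligand-pharmacophore element distance, pharmacophore element C3: distance from averaged pharmacophore element to bound ligand; missing value means element absent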;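 for Ligand-pharmacophore element distance, pharmacophore element C4: distance from averaged pharmacophore element to bound ligand; missing value means element absent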;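 for Ligand-pharmacophore element distance, pharmacophore element C5: distance from averaged pharmacophore element to bound ligand; missing value means element absent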
Set-up: van der Waals contact distance, MASP-2 HIS 483 atom CD2 / van der Waals contact distance, MASP-2 HIS 483 atom NE2 / van der Waals contact distance, SER 654 C to compound atom / van der Waals contact distance, SER 654 O to compound atom / van der Waals contact distance, TRP 655 C to compound atom / van der Waals contact distance, MASP-2 GLY 528 atom CA / van der Waals contact distance TRP 655 atom CZ3 / van der Waals contact distance TRP 655 atom N / van der Waals contact distance TRP 655 atom CE3 / van der Waals contact distance GLY 656 atom C / van der Waals contact distance GLY 656 atom CA / van der Waals contact distance GLY 656 atom O / van der Waals contact distance, MASP-2 TYR 607 atom CD1 / van der Waals contact distance, MASP-2 PRO 606 atom O / d(C3,CA1) / d(CA1,N1)2 / d(H4,O1) / d(H4,O2) / d(O1,O2) / d(CA1,O2) / d(CA6,O1) / d(CA6,O2) / d(CA1,C5) / d(O2,H3) / d(N2,C2) / d(CA5,N2) / d(N2,C4) / d(N2,C6) / d(N2,CA3) / d(N2,O3) / d(O4,H2): unit not given beside the values
Conditions: for Ligand-pharmacophore element distance, pharmacophore element C2 / Ligand-pharmacophore element distance, pharmacophore element C3 / Ligand-pharmacophore element distance, pharmacophore element C4 / Ligand-pharmacophore element distance, pharmacophore element C5 / Ligand-pharmacophore element distance, pharmacophore element C6 / Ligand-pharmacophore element distance, pharmacophore element C7 / Ligand-pharmacophore element distance, pharmacophore element CA1 / Ligand-pharmacophore element distance, pharmacophore element CA2 / Ligand-pharmacophore element distance, pharmacophore element CA3 / Ligand-pharmacophore element distance, pharmacophore element CA4 / Ligand-pharmacophore element distance, pharmacophore element CA5 / Ligand-pharmacophore element distance, pharmacophore element CA6: Table A4-1
From the text: This example illustrates the preparation of recombinant MASP-2 protein, based on UniProt O00187, human mannan-binding lectin serine protease 2. Expression constructs for human MASP-2 CCP2-SP and CCP2-SP-6HIS were generated for recombinant expression in E. coli cells.
Typically, crystallization hits were obtained by screening against […] 96-well crystallization reagent kits (GRAS6, GRAS2, Hampton Research; MORPHEUS, Molecular Dimensions; Wizard 1&2 Cryo, Rigaku Reagents) and crystal growth was inspected by optical microscopy. Crystals were used directly or further optimized for X-ray diffraction. Crystals were captured with cryogenic loops and dipped into liquid nitrogen directly or cryoprotected with a 20% glycerol in crystallization formulation before flash-cooling in liquid nitrogen.
Thereafter crystals are transferred once or twice for soaking within the crystallization solution containing the MASP-2 inhibitor.
Crystals were diffracted with synchrotron X-rays of […] and X-ray diffraction datasets were collected at beamlines SSRL BL9-2, BL14-1, BL12-2 as well as ALS sector 5 using Dectris Pilatus and Eiger detectors. Structures were determined by molecular replacement using portions of the structure 1Q3X as search models and partially refined with Buster 2.10.2 or Refmac 5.8. […] When multiple ligand poses were observed, for instance arising from multiple molecules in the asymmetric unit or refined dual poses within the same molecule, only one pose was selected and analyzed.
LigPlot+ calls these ‘nonbonded contacts’ or ‘hydrophobic contacts’. Despite the name, there are atom pairings that include possible H-bonds. Thus, in some instances, the Table A2 also contains H-bond interactions.

[1] = Table A5-1 pharmacophore: distance between elements, S2/S1 region
[2] = Table A5-2 pharmacophore distance, S3/S4 region
[3] = Table A7-1, between pharmacophore elements of the bound compound
[4] = Table A7-2, between pharmacophore elements of the bound compound
[5] = Table A8-6, nearest protein atom in cell to the left

MASP-2 CCP2-SP, sequence (O00187 445-686): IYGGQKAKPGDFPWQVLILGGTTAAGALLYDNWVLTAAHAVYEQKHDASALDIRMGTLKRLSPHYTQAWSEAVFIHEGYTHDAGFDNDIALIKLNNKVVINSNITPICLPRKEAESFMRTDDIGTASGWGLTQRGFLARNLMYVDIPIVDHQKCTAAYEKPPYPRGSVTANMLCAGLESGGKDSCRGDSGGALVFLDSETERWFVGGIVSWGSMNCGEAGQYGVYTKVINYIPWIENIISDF
MASP-2 CCP2-SP, sequence (O00187 364-432 partner): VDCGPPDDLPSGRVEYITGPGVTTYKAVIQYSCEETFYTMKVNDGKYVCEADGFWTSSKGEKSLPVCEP

H-bond distance to MASP-2 ASP 627 atom OD1 (Table A1 (H-Bonds), ASP 627 OD1): 2.79
H-bond distance to MASP-2 GLN 665 atom OE1 (Table A1 (H-Bonds), GLN 665 OE1): 2.76
H-bond distance to MASP-2 GLY 656 atom N (Table A1 (H-Bonds), GLY 656 N): 2.93
H-bond distance to MASP-2 SER 628 atom OG (Table A1 (H-Bonds), SER 628 OG): 2.86
H-bond distance to MASP-2 SER 654 atom O (Table A1 (H-Bonds), SER 654 O): 2.84
H-bond distance to MASP-2 SER 657 atom O (Table A1 (H-Bonds), SER 657 O): 2.92
van der Waals contact distance, MASP-2 HIS 483 atom CD2 (Table A2-1): 3.75
van der Waals contact distance, MASP-2 PHE 529 atom CE1 (Table A2-3): 3.52
van der Waals contact distance, MASP-2 PRO 606 atom C (Table A2-4): 3.86
van der Waals contact distance, MASP-2 amino acid atom to compound atom (Table A2-9 second part, ARG 630, AA atoms N, NE, NH1): 3.69
van der Waals contact distance, VAL 653 CG1 to compound atom (Table A2-11): 3.9
van der Waals contact distance GLY 656 atom C (Table A2-13, MASP-2 GLY 656 C): 3.54
Ligand-pharmacophore element distance, pharmacophore element C2: 3.15
Ligand-pharmacophore element distance, pharmacophore element C3: 0
Ligand-pharmacophore element distance, pharmacophore element C4: 0
Ligand-pharmacophore element distance, pharmacophore element C5: 0
Ligand-pharmacophore element distance, pharmacophore element C6: 0
Ligand-pharmacophore element distance, pharmacophore element C7: 0
Ligand-pharmacophore element distance, pharmacophore element CA1: 0.35
Ligand-pharmacophore element distance, pharmacophore element CA2: 0
Ligand-pharmacophore element distance, pharmacophore element CA3: 0
Ligand-pharmacophore element distance, pharmacophore element CA4: 0
Ligand-pharmacophore element distance, pharmacophore element CA5: 0.67
Ligand-pharmacophore element distance, pharmacophore element CA6: 0
Ligand-pharmacophore element distance, pharmacophore element H1 (Table A4-2, element H1): 0
Ligand-pharmacophore element distance, pharmacophore element H2 (Table A4-2, element H2): 0
Ligand-pharmacophore element distance, pharmacophore element H3 (Table A4-2, element H3): 1.34
Ligand-pharmacophore element distance, pharmacophore element H4 (Table A4-2, element H4): 3.79
Ligand-pharmacophore element distance, pharmacophore element N1 (Table A4-2, element N1): 1.8
Ligand-pharmacophore element distance, pharmacophore element N2 (Table A4-2, element N2): 1.8
Ligand-pharmacophore element distance, pharmacophore element O1 (Table A4-2, element O1): 0.39
Ligand-pharmacophore element distance, pharmacophore element O2 (Table A4-2, element O2): 0.58
Ligand-pharmacophore element distance, pharmacophore element O3 (Table A4-2, element O3): 0
Ligand-pharmacophore element distance, pharmacophore element O4 (Table A4-2, element O4): 0
d(CA1,N1) [1]: 3.60
d(CA1,O1) [1]: 4.47
d(CA1,O2) [1]: 4.37
d(H4,O1) [1]: 5.00
d(H4,O2) [1]: 4.63
d(O1,O2) [1]: 3.49
d(CA5,N2) [2]: 5.54
d(N2,C2) [2]: 2.76
d(O2,H3) [2]: 2.83
d(O2,N2) [2]: 3.19
a(CA1, O1, O2) (Table A6-1 pharmacophore angle): 111.77
a(O1, O2, H4) (Table A6-1 pharmacophore angle): 137.67
A(N1, CA1, O1) a) (Table A6-1 pharmacophore angle, all compounds with protonatable center N1 except Methyl-amino-pyridine): 164.78
a(O1, O2, H3) (Table A6-2 pharmacophore angle): 122.63
a(O1, O2, N2) (Table A6-2 pharmacophore angle): 127.76
a(O2, N2, C2) (Table A6-2 pharmacophore angle): 110.31
Pharmacophore torsion angle a(H4, O1, O2, H3) [3]: 104.70
Pharmacophore torsion angle a(H4, O1, O2, N2) [3]: 133.45
Pharmacophore torsion angle a(N1, CA1, O2, H4) [3]: −139.56
Pharmacophore torsion angle a(O1, H4, O2, CA1) [3]: −65.27
Pharmacophore torsion angle a(O1, O2, N2, C2) [3]: 95.54
Pharmacophore torsion angle a(O1, O2, N2, CA5) [4]: 145.95
Pharmacophore protein distance to MET_658 (first MET_658 column) (Table A8-6, 6th residue column, nearest protein atom in cell to the left): 2.85
Pharmacophore protein distance to MET_658 (second MET_658 column) (Table A8-6, 9th residue column, nearest protein atom in cell to the left): 3.11
Pharmacophore protein distance to GLY_528 [5]: 3.51
Pharmacophore protein distance to PHE_529 [5]: 2.98
Pharmacophore protein distance to PRO_608 [5]: 4.05
Pharmacophore protein distance to SER_611 [5]: 2.58
Pharmacophore protein distance to TRP_655 (Table A8-6, pharmacophore elements C6, CA3, O3, H1, nearest protein atom in cell to the left): 3.31
Structure (SMILES): N=C(N)c1ccc(CNC(=O)[C@@H]2CCN2C(=O)[C@H](NCC(=O)O)C2Cc3ccccc3C2)cc1 [compound 1129]

Structure (SMILES): C[C@H](NC(=O)[C@H]1C[C@@H](c2ccccc2)CCN1)C(=O)NCc1cc(Cl)ccc1O.Cl [1078_4]
Ligand-pharmacophore element distance, pharmacophore element C2: 0.67
Ligand-pharmacophore element distance, pharmacophore element C3: 0
Ligand-pharmacophore element distance, pharmacophore element C4: 0
Ligand-pharmacophore element distance, pharmacophore element C5: 0.52
Ligand-pharmacophore element distance, pharmacophore element C6: 0
Ligand-pharmacophore element distance, pharmacophore element C7: 0
Ligand-pharmacophore element distance, pharmacophore element CA1: 1.62
Ligand-pharmacophore element distance, pharmacophore element CA2: 0.59
Ligand-pharmacophore element distance, pharmacophore element CA3: 0
Ligand-pharmacophore element distance, pharmacophore element CA4: 0
Ligand-pharmacophore element distance, pharmacophore element CA5: 0
Ligand-pharmacophore element distance, pharmacophore element CA6: 0
d(CA1,C5) [1]: 3.13
d(CA1,O1) [1]: 4.56
d(CA1,O2) [1]: 4.61
d(CA1,O4) [1]: 2.76
d(H4,O1) [1]: 2.27
d(H4,O2) [1]: 2.64
d(O1,O2) [1]: 3.39
d(O4,H2) [1]: 0.97
d(N2,C2) [2]: 1.51
d(N2,CA2) [2]: 5.66
d(O2,H3) [2]: 2.72
d(O2,N2) [2]: 2.70
a(C5, CA1, O1) (Table A6-1 pharmacophore angle): 161.60
a(CA1, O1, O2) (Table A6-1 pharmacophore angle): 112.48
a(CA1, O4, H2) (Table A6-1 pharmacophore angle): 128.57
a(O1, CA1, O4) (Table A6-1 pharmacophore angle): 65.56
a(O1, O2, H4) (Table A6-1 pharmacophore angle): 93.17
a(O1, O2, H3) (Table A6-2 pharmacophore angle): 141.42
a(O1, O2, N2) (Table A6-2 pharmacophore angle): 146.07
a(O2, N2, C2) (Table A6-2 pharmacophore angle): 126.96
a(O2, N2, CA2) (Table A6-2 pharmacophore angle): 155.54
Pharmacophore torsion angle a(C5, CA1, O1, H4) [3]: 32.90
Pharmacophore torsion angle a(H4, O1, O2, H3) [3]: −123.98
Pharmacophore torsion angle a(H4, O1, O2, N2) [3]: −113.42
Pharmacophore torsion angle a(O1, H4, O2, CA1) [3]: −58.33
Pharmacophore torsion angle a(O1, O2, N2, C2) [3]: 124.98
Pharmacophore torsion angle a(O1, O2, N2, CA2) [4]: 136.93
